Molecular target: T1, hTRPM8 (Homo sapiens, UniProt Q7Z2W7)
T1 construct: expressed in transfected cells
Test: Assay on TRPM8 modulators: calcium imaging (Fluo-4, Flexstation) in HEK293 cell line stably expressing hTRPM8
Assay type: cell-based
Settings: HEK293 cells stably expressing hTRPM8; calcium influx, sigmoidal dose-response fit
Protocol: A HEK293 cell line stably expressing hTRPM8 was generated according to Klein et al., (Chem. Senses 36: 649-658, 2011) and receptor activation was monitored by calcium imaging in a Flexstation. For Ca-imaging assays of TRPM8 channel activation, cells were seeded on day 0 at a density of 12000 cells per well in Dulbecco's modified Eagle medium (DMEM) containing 9% foetal bovine serum in black, clear bottom 96-well plates that had been coated with 0.001% polyethyleneimine (molecular weight=60 000, Acros Organics). On day 2, agonists were evaluated via calcium imaging using Fluo-4. Briefly, growth medium was discarded, and the cells were incubated in the dark for 1 h at 37° C. in 50 μL loading buffer consisting of 2.7 μM Fluo-4 AM (Invitrogen) and […] probenecid (Sigma-Aldrich) in DMEM (without serum). After incubation, the plates were washed five times with 100 μL of assay buffer (in mM: 130 NaCl, 5 KCl, 10 HEPES, 2 CaCl2, and 10 glucose, pH7.4.) and further incubated in the dark at room temperature for 30 min. The cells were then washed five times with 100 μL assay buffer and then calcium influx to serial dilutions of inventive compounds were measured in a Flexstation 3 (Molecular Devices). Receptor activation was initiated following addition of 20 μl of a 10-fold concentrated ligand stock solution, which is also prepared in assay buffer. Fluorescence was continuously monitored for 15 seconds prior to ligand addition and for 105 seconds after ligand addition, for a total of 120 seconds. Maximal receptor activation in relation to solvent control and relative to 31.6 μM menthol is determined. Data from serial dilutions were processed with a KNIME workflow to fit a sigmoidal dose-response curve and to extrapolate EC50 values.

T1 sequence (Q7Z2W7 whole entry): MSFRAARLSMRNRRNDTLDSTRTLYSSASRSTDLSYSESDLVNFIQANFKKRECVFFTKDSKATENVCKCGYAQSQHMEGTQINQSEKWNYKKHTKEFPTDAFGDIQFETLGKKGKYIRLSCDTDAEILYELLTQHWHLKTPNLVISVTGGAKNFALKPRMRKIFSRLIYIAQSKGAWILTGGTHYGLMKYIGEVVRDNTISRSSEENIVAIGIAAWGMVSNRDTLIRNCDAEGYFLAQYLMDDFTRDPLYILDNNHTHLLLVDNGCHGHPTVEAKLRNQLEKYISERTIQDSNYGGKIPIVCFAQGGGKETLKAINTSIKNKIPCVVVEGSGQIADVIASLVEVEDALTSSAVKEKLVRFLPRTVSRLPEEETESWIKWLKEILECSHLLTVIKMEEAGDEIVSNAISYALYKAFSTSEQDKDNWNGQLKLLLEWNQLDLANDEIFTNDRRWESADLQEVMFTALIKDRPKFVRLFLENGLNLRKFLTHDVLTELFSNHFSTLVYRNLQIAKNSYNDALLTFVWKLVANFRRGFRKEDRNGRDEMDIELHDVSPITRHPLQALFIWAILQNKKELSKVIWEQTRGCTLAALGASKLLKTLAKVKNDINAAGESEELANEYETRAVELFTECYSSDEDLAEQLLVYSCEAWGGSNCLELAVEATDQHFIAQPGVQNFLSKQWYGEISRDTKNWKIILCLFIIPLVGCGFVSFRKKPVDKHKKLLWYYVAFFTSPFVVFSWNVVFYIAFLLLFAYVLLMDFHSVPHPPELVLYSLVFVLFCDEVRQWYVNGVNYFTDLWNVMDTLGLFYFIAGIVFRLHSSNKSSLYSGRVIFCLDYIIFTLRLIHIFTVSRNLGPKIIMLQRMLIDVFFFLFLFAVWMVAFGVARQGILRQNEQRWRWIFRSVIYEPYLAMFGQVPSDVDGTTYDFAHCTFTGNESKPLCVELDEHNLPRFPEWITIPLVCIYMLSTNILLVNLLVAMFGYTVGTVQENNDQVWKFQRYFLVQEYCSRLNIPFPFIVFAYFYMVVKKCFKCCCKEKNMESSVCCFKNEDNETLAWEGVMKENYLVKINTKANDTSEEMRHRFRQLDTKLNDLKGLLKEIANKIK

SMILES | EC50
CCC(C)C(=O)N1CCCCC1c1nc(-c2ccc(C)cc2)cn1C(=O)COCc1ccccc1 (stereo not shown) [1-(2-(1-(2-(benzyloxy)acetyl)-4-(p-tolyl)-1H-imidazol-2-yl)piperidin-1-yl)-2-methylbutan-1-one] | < 50 nM
CCCCCCCCCCCC(=O)n1cc(-c2ccc(C)cc2)nc1C1CCCCN1C(=O)C(C)SC (stereo not shown) [1-(2-(1-(2-(methylthio)propanoyl)piperidin-2-yl)-4-(p-tolyl)-1H-imidazol-1-yl)dodecan-1-one] | 50 to 300 nM
CCCCCC(=O)n1cc(-c2ccc(C)cc2)nc1C1CCCCN1C(=O)C(C)SC (stereo not shown) [1-(2-(1-(2-(methylthio)propanoyl)piperidin-2-yl)-4-(p-tolyl)-1H-imidazol-1-yl)hexan-1-one] | 50 to 300 nM
CCC(C)C(=O)N1CCCCC1c1nc(-c2ccc(C)cc2)cn1C(=O)COC (stereo not shown) [1-(2-(1-(2-methoxyacetyl)-4-(p-tolyl)-1H-imidazol-2-yl)piperidin-1-yl)-2-methylbutan-1-one] | < 50 nM
CCCCCCCCCCCC(=O)n1cc(-c2ccc(C)cc2)nc1C1CCCCN1C(=O)C(C)CC (stereo not shown) [1-(2-(1-(2-methylbutanoyl)piperidin-2-yl)-4-(p-tolyl)-1H-imidazol-1-yl)dodecan-1-one] | 300 to 1000 nM
CCCCCC(=O)n1cc(-c2ccc(C)cc2)nc1C1CCCCN1C(=O)C(C)CC (stereo not shown) [1-(2-(1-(2-methylbutanoyl)piperidin-2-yl)-4-(p-tolyl)-1H-imidazol-1-yl)hexan-1-one] | < 50 nM
CSC(C)C(=O)N1CCCCC1c1nc(-c2ccc(C)cc2)cn1C(=O)[C@@H]1C[C@H](C)CC[C@H]1C(C)C (stereo partly drawn) [1-(2-(1-((1R,2S,5R)-2-isopropyl-5-methylcyclohexane-1-carbonyl)-4-(p-tolyl)-1H-imidazol-2-yl)piperidin-1-yl)-2-(methylthio)propan-1-one] | 300 to 1000 nM
CCC(C)C(=O)N1CCCCC1c1nc(-c2ccc(C)cc2)cn1C(=O)[C@@H]1C[C@H](C)CC[C@H]1C(C)C (stereo partly drawn) [1-(2-(1-((1R,2S,5R)-2-isopropyl-5-methylcyclohexane-1-carbonyl)-4-(p-tolyl)-1H-imidazol-2-yl)piperidin-1-yl)-2-methylbutan-1-one] | 1000 to 35000 nM
CSC(C)C(=O)N1CCCCC1c1nc(-c2ccc(C)cc2)cn1C(C)=O (stereo not shown) [1-(2-(1-acetyl-4-(p-tolyl)-1 H-imidazol-2-yl)piperidin-1-yl)-2-(methylthio)propan-1-one] | 50 to 300 nM
CCC(C)C(=O)N1CCCCC1c1nc(-c2ccc(C)cc2)cn1C(C)=O (stereo not shown) [1-(2-(1-acetyl-4-(p-tolyl)-1H-imidazol-2-yl)piperidin-1-yl)-2-methylbutan-1-one] | < 50 nM
CSC(C)C(=O)N1CCCCC1c1nc(-c2ccc(C)cc2)cn1C(=O)c1ccccc1 (stereo not shown) [1-(2-(1-benzoyl-4-(p-tolyl)-1 H-imidazol-2-yl)piperidin-1-yl)-2-(methylthio)propan-1-one] | < 50 nM
CCC(C)C(=O)N1CCCCC1c1nc(-c2ccc(C)cc2)cn1C(=O)C(C)C (stereo not shown) [1-(2-(1-isobutyryl-4-(p-tolyl)-1 H-imidazol-2-yl)piperidin-1-yl)-2-methylbutan-1-one] | 50 to 300 nM
CSC(C)C(=O)N1CCCCC1c1nc(-c2ccc(C)cc2)cn1C(=O)C(C)C (stereo not shown) [1-(2-(1-isobutyryl-4-(p-tolyl)-1H-imidazol-2-yl)piperidin-1-yl)-2-(methylthio)propan-1-one] | < 50 nM
Cc1ccc(-c2cn(C(=O)C(C)C)c(C3CCCCN3C(=O)C(C)C)n2)cc1 (stereo not shown) [1-(2-(1-isobutyryl-4-(p-tolyl)-1H-imidazol-2-yl)piperidin-1-yl)-2-methylpropan-1-one] | 50 to 300 nM
CCC(=O)N1CCCCC1c1nc(-c2ccc(C)cc2)cn1C(=O)CC (stereo not shown) [1-(2-(1-propionyl-4-(p-tolyl)-1 H-imidazol-2-yl)piperidin-1-yl)propan-1-one] | 1000 to 35000 nM
CSC(C)C(=O)N1CCCCC1c1nc(-c2ccc(C)cc2)cn1C(=O)C(C)SC (stereo not shown) [2-(methylthio)-1-(2-(1-(2-(methylthio)propanoyl)-4-(p-tolyl)-1H-imidazol-2-yl)piperidin-1-yl)propan-1-one] | < 50 nM
CC(=O)n1ccc(N(Cc2cccs2)C(=O)COc2ccc(C)cc2)n1 [N-(1-acetyl-1H-pyrazol-3-yl)-N-(thiophen-2-ylmethyl)-2-(p-tolyloxy)acetamide] | < 50 nM
Cc1ccc(OCC(=O)N(Cc2cccs2)c2ccn(C(=O)c3ccccc3)n2)cc1 [N-(1-benzoyl-1H-pyrazol-3-yl)-N-(thiophen-2-ylmethyl)-2-(p-tolyloxy)acetamide] | < 50 nM
Cc1ccc(OCC(=O)N(Cc2cccs2)c2ccn(C(=O)C(C)C)n2)cc1 [N-(1-isobutyryl-1H-pyrazol-3-yl)-N-(thiophen-2-ylmethyl)-2-(p-tolyloxy)acetamide] | < 50 nM
